The values below come from the PolyMetriX glass transition set.

As for `*/C=C/CC(C*)(C(=O)OC12CC3CC(CC(C3)C1)C2)C(=O)OC12CC3CC(CC(C3)C1)C2` (repeat unit), the glass transition temperature was 34.00 °C.
To `*C(=O)NCCNC(=O)c1ncn(C)c1*` (repeat unit) belongs 189.00 °C; to `*C/C=C/C[Si](*)(C)CCCOc1ccccc1` (repeat unit), -30.00 °C; to `*C/C=C/C[Si](*)(C)c1ccccc1` (repeat unit), -1.00 °C.
To `*CC(*)c1ccc([Si](C)(C)OC(C)C)cc1` (repeat unit) belongs 180.00 °C; to `*CC(*)c1ccc([Si](C)(C)O[Si](C)(C)O[Si](C)(C)C)cc1` (repeat unit), -27.00 °C.
The molecule `*CC(*)c1ccc([Si](C)(O[Si](C)(C)C)O[Si](C)(C)C)cc1` (repeat unit) showed a glass transition temperature of 54.00 °C.
For the molecule `*CC(*)c1cccc(B(O[Si](C)(C)C)O[Si](C)(C)C)c1` (repeat unit), the glass transition temperature was 35.00 °C.
`*CC(*)c1cccc(Br)c1` (repeat unit) displayed a glass transition temperature of 102.00 °C.
To `*CC(*)c1cccc(Cl)c1` (repeat unit) belongs 90.00 °C; to `*CC(*)c1cccc(F)c1` (repeat unit), 86.00 °C; to `*CC(*)c1cccc(OC(C)=O)c1` (repeat unit), 76.00 °C.
In the case of `*CC(*)c1cccc2c1OCO2` (repeat unit) it was 119.00 °C.
`*CC(*)c1ccccc1C(=O)Nc1ccccc1` (repeat unit) had a glass transition temperature of 191.00 °C.
To `*CC(*)c1ccccc1C(=O)O` (repeat unit) belongs 177.00 °C.
`*CC(*)c1ccccc1C(=O)OC` (repeat unit) displayed a glass transition temperature of 130.00 °C.
Molecule `*CC(*)c1ccccc1C(=O)OC(C)C` (repeat unit) gave a glass transition temperature of 146.00 °C.
In turn, `*CC(*)c1ccccc1C(=O)OCC` (repeat unit) gave a glass transition temperature of 118.00 °C.
Molecule `*CC(*)c1ccccc1C(=O)OCCC` (repeat unit) gave a glass transition temperature of 108.00 °C.
As for `*CC(*)c1ccccc1C(=O)OCCC(C)C` (repeat unit), the glass transition temperature was 68.00 °C.
In the case of `*CC(*)c1ccccc1C(=O)OCCN(C)C` (repeat unit) it was 69.00 °C; in that of `*CC(*)c1ccccc1C(=O)Oc1ccccc1` (repeat unit), 124.00 °C; in that of `*CC(*)c1ccccc1COCCC(C)C` (repeat unit), 78.00 °C.
Consider `*CC(*)c1ccccc1COCCCC` (repeat unit), for which the glass transition temperature turned out to be 67.00 °C.
In the case of `*CC(*)c1ccccc1COCCCCC` (repeat unit) it was 47.00 °C; in that of `*CC(*)c1ccccc1COCCc1ccccc1` (repeat unit), 63.00 °C; in that of `*CC(*)c1ccccc1COCc1ccccc1` (repeat unit), 72.00 °C.
In the case of `*CC(*)c1ccccc1OC(C)=O` (repeat unit) it was 118.00 °C; in that of `*CC(*)c1cccs1` (repeat unit), 71.00 °C; in that of `*CC(*)c1nc(C)nc(C)n1` (repeat unit), 70.00 °C.
`*CC(*)n1ccnc1` (repeat unit): the glass transition temperature worked out at 175.00 °C.
To `*CC(*)n1cncn1` (repeat unit) belongs 165.00 °C; to `*CC(C)(C)C1C(=O)N(C2CCCCC2)C(=O)C1*` (repeat unit), 192.00 °C; to `*CC(C)CCC(C)CNC(=O)c1cc(C(=O)N*)cc(C(C)(C)C)c1` (repeat unit), 149.00 °C.
In turn, `*CC(CCCCCCCCCCCCCCCC)C1C(=O)N(CCCCCCCCCCCC)C(=O)C1*` (repeat unit) had a glass transition temperature of 30.00 °C.
On to `*CC(OC)C1(C)C(=O)OC(=O)C1(*)C` (repeat unit), for which the glass transition temperature was 260.00 °C.
To `*CC(OC)C1C(=O)OC(=O)C1*` (repeat unit) belongs 153.50 °C; to `*CC(OCC)C1(C)C(=O)OC(=O)C1(*)C` (repeat unit), 244.00 °C.
Molecule `*CC(c1ccccc1)C1C(=O)N(CCCCNC(=O)C(F)(F)C(F)(F)C(F)(F)C(F)(F)C(F)(F)C(F)(F)C(F)(F)F)C(=O)C1*` (repeat unit) gave a glass transition temperature of 113.00 °C.
On to `*CC(c1ccccc1)C1C(=O)N(CCCN(CC)c2ccc(/N=N/c3ccc([N+](=O)[O-])cc3)c(C)c2)C(=O)C1*` (repeat unit), for which the glass transition temperature was determined as 137.00 °C.
`*CC(c1ccccc1)C1C(=O)N(CCCN(CC)c2ccc(/N=N/c3ccc([N+](=O)[O-])cc3Cl)c(C)c2)C(=O)C1*` (repeat unit): the glass transition temperature came to 149.00 °C.
`*CC(c1ccccc1)C1C(=O)N(CCCOc2ccc(-c3ccc(C#N)cc3)cc2)C(=O)C1*` (repeat unit) yielded a glass transition temperature of 130.00 °C.
To `*CC(c1ccccc1)C1C(=O)N(c2ccc(Oc3ccccc3)cc2)C(=O)C1*` (repeat unit) belongs 194.00 °C.
`*CC(c1ccccc1)C1C(=O)N(c2ccccc2)C(=O)C1*` (repeat unit) returned a glass transition temperature of 221.00 °C.
In the case of `*CC/C=C/C[Si](*)(C)c1ccccc1` (repeat unit) it was -14.90 °C; in that of `*CC1(*)CC(=O)N(c2ccccc2)C1=O` (repeat unit), 236.00 °C.
Turning to `*CC1CC(*)C(OC(=O)CCCCCCCCCCOc2ccc(-c3ccc(C#N)cc3)cc2)C1OC(=O)CCCCCCCCCCOc1ccc(-c2ccc(C#N)cc2)cc1` (repeat unit), the glass transition temperature came to 14.50 °C.
Molecule `*CC1CCC(COC(=O)CCC(=O)O*)CC1` (repeat unit) came in with a glass transition temperature of -1.00 °C.
To `*CC1CCCC(CNC(=O)c2cc(C(=O)N*)cc(C(C)(C)C)c2)C1` (repeat unit) belongs 200.00 °C.
`*CCC([2H])C(*)([2H])C` (repeat unit) displayed a glass transition temperature of -47.50 °C.
To `*CCC(c1ccccc1)[Si](*)(C)C` (repeat unit) belongs 27.00 °C.
`*CCC1C(=O)N(CCCC)C(=O)C1*` (repeat unit) returned a glass transition temperature of 67.90 °C.
To `*CCC1C(=O)N(CCCCCCCCCCCC)C(=O)C1*` (repeat unit) belongs 55.40 °C.
In the case of `*CCCCCCCCCCCCNC(=O)C(OC)C(OC)C(=O)N*` (repeat unit) it was 84.00 °C.
`*CCCCCCCCCCCCNC(=O)CCP(C)(=O)CCC(=O)N*` (repeat unit) came in with a glass transition temperature of 44.00 °C.
In the case of `*CCCCCCCCCCNC(=O)CCP(C)(=O)CCC(=O)N*` (repeat unit) it was 45.50 °C; in that of `*CCCCCCCCCCOC(=O)CC/C=C/CCC(=O)O*` (repeat unit), -15.00 °C.
`*CCCCCCCCCOC(=O)CCC(=O)O*` (repeat unit) displayed a glass transition temperature of 31.00 °C.
To `*CCCCCCCCNC(=O)C(OC)C(OC)C(=O)N*` (repeat unit) belongs 89.00 °C; to `*CCCCCCNC(=O)C(OC)C(OC)C(=O)N*` (repeat unit), 106.00 °C.
To `*CCCCCCNC(=O)CCC(C)(C)c1ccc(C(C)(C)CCC(=O)N*)cc1` (repeat unit) belongs 93.2 °C; to `*CCCCCCNC(=O)CCC(C)CC(=O)N*` (repeat unit), 17.00 °C; to `*CCCCCCNC(=O)CCC1(CCC(=O)N*)c2ccccc2-c2ccccc21` (repeat unit), 122.00 °C.
To `*CCCCCCNC(=O)c1cc(C(=O)N*)cc(C(C)(C)C)c1` (repeat unit) belongs 163.00 °C.
In the case of `*CCCCCCNC(=O)c1cc(NC(=O)c2ccc(NC(=O)C(CC(C)C)N3C(=O)c4ccccc4C3=O)cc2)cc(C(=O)N*)c1` (repeat unit), the glass transition temperature came out at 200.00 °C.
As to `*CCCCCNC(=O)C(OC)C(OC)C(=O)N*` (repeat unit), the glass transition temperature worked out at 113.00 °C.
`*CCCNC(=O)C(OC)C(OC)C(=O)N*` (repeat unit): the glass transition temperature stood at 123.00 °C.
`*CCCOC(=O)CCC(=O)O*` (repeat unit) returned a glass transition temperature of -34.70 °C.
Turning to `*CCOC(=O)CCC(=O)OCCOC(=O)c1ccc(C(=O)O*)cc1` (repeat unit), the glass transition temperature came to 24.00 °C.
With `*NC(C)CCC(C)(C)CCCNC(=O)c1ccc(C(*)=O)cc1` (repeat unit), the glass transition temperature was determined as 150.00 °C.
As to `*NC1CCC(CC(C)(C)NC(=O)CCCCC(*)=O)CC1` (repeat unit), the glass transition temperature is 80.00 °C.
To `*NNC(=O)c1ccc(C(*)=O)cc1OCCCCC` (repeat unit) belongs 234.00 °C; to `*O[Si](C)(C)CCC/N=C1C=C/C(=N/CCC[Si](*)(C)C)c2c(O)ccc(O)c2\1` (repeat unit), 32.90 °C.
The molecule `*O[Si](C)(CCC(F)(F)F)CCC(F)(F)C(F)(F)C(F)(F)C(F)(F)C(F)(F)C(F)(F)C(F)(F)C(F)(F)C(F)(F)C(F)(F)CC[Si](*)(C)CCC(F)(F)F` (repeat unit) came in with a glass transition temperature of -11.00 °C.
In the case of `*O[Si](C)(CCC(F)(F)F)CCC(F)(F)C(F)(F)C(F)(F)C(F)(F)CC[Si](*)(C)CCC(F)(F)F` (repeat unit) it was -25.00 °C; in that of `*O[Si](C)(CCC(F)(F)F)CCC(F)(F)C(F)(F)CC[Si](*)(C)CCC(F)(F)F` (repeat unit), -27.00 °C.
As to `*Oc1ccc(C2(c3ccc(OC(=O)CCC(*)=O)cc3)c3ccccc3-c3ccccc32)cc1` (repeat unit), the glass transition temperature was found to be 234.00 °C.
In the case of `*Oc1ccc(CC(NC(=O)CCc2ccc(OC(=O)CCC(C)CC(*)=O)cc2)C(=O)OCc2ccccc2)cc1` (repeat unit), the glass transition temperature is 55.00 °C.
